Measurements: patent publication US20240208932A1, “ARYLAMINO DERIVATIVE ESTROGEN RECEPTOR MODULATOR AND USE THEREOF” (XIZANG HAISCO PHARMACEUTICAL CO., LTD., priority 2021, published 2024)

Tests used:
ERα = ERα (Homo sapiens (Human), UniProt P03372); assay: Degradation effect of compounds on ERα in MCF-7 and CAMA-1 cells (automated western blot, 24 h); format: cell-based; conditions: ERα degradation in MCF-7 cells; for DC50: 24 hours; for Dmax at 0.1 µM: MCF7, @100 nM
Method: 2. Degradation Effect of Compounds on ERα in MCF-7 and CAMA-1 Cells
Breast cancer cells MCF-7 and CAMA-1 were purchased from ATCC, the cell media were all EMEM+10% FBS, and the cells were cultured in an incubator at 37° C. under 5% CO2. On the first day, the cells in an exponential phase were collected. With a 10% css-FBS phenol red-free medium, the cell suspension was adjusted to a corresponding concentration, plated at 300000 cells/well and incubated for 3 days. After 3 days, the liquid in the well was aspirated, and a 10% css-FBS phenol red-free medium containing the compound to be tested was added and cultured in an incubator at 37° C. under 5% CO2. After 24 hours, 60 μl of RIPA lysis solution (containing 1× protease inhibitor cocktail) was added to each well, lysed on ice for 15 minutes, and then centrifuged at 4° C. for 10 minutes at 12000 g. The supernatant protein samples were collected, and protein quantification was performed by a BCA method. ERα was detected using fully automatic protein expression quantitative analysis, which involved diluting the protein to be tested to 1.5 mg/mL. 4 μL of the diluted protein samples were added to 1 μL of 5×Master Mix (provided in the kit), and the prepared samples were denatured at 95° C. for 5 min and placed on ice for use. Antibody Diluent II (provided in the kit) was used to dilute the primary antibody, in which the dilution ratios of ERα (CST, 13258S) and β-actin (CST, 3700) antibodies were 1:40 and 1:500, respectively, the secondary antibody was a 1:1 mixture of goat anti-mouse and goat anti-rabbit secondary antibodies, and the chromogenic solution was a 1:1 mixture of Lumino-S and Peroxide. The prepared reagents were successively added to an assay plate according to instructions of the kit and detected on an instrument. Western blot band processing was performed using “Compass for SW”, a fully automatic protein expression quantitative analysis software, in which western blot bands were automatically simulated based on signal values. The proportion of ERα relative to the solvent control at different drug concentrations according to equation (1), wherein Acompound was the relative peak area of ERα in the treated group, and Asolvent was the relative peak area of ERα in the solvent control group.
ERα%=Acompound/Asolvent×100 equation (1)
DC50 calculation: Calculation was performed according to equation (1), and using Graphpad Prism 8.0 software, the compound concentration DC50 values at which the degradation rate of ERα was 50% were calculated using a non-linear four-parameter function (Non linear regression (curve fit)) (Table 1).

MCF-7 cells = assay: Inhibitory effect of compounds on the proliferation of MCF-7 cells (CellTiter-Glo, 7 days); format: cell-based; conditions: Homo sapiens, MCF7, 168 h, 7 days incubation
Method: 1. Inhibitory Effect of Compounds on the Proliferation of MCF-7 Cells
Breast cancer cells MCF-7 were purchased from ATCC, the cell media were all EMEM+10% FBS, and the cells were cultured in an incubator at 37° C. under 5% CO2. On the first day, cells in the exponential growth phase were collected and cultured in a 10% css-FBS phenol red-free medium without cytokines for 3 days. After the completion of culture, a 10% css-FBS phenol red-free medium was used to adjust the cell suspension to the corresponding concentration and same was plated to 1000 cells/well. P-estradiol and compounds of different concentrations were added. A plate without adding any reagent was taken and used as Day0 with a reading value RLUday0, determined with CellTiter-Glo kit, placed in an incubator and incubated for 7 days. After the incubation was completed, according to operation instructions for a CellTiter-Glo kit (Promega, G7573), 50 μL of CellTiter-Glo solutions, which were pre-melted and equilibrated to room temperature, were added to each well, and the mixtures were uniformly mixed for 2 min using a microplate shaker. The plate was placed at room temperature for 10 min, and then […] signal values were measured using a microplate reader (PHERAstar FSX). Chemiluminescence readouts were processed using origin9.2 software and the DoseResp function was used to calculate the GIsovalue for the inhibitory activity of compounds on the proliferation of cells (Table 1). The results were processed according to equation (1), the inhibition rate of the compound at different concentrations was calculated, and the GI50 value of the compound with a proliferation rate of 50% was calculated using origin9.2 software, wherein RLUcompound was the readout of the treated group, and RLUcontrol was the average value of the solvent control group.
Growth %=(RLUcompound−RLUday0)/(RLUcontrol−RLUday0)×100 equation (1)

ER = conditions: clinical samples; cited from earlier work

Chain of ERα (P03372 whole entry): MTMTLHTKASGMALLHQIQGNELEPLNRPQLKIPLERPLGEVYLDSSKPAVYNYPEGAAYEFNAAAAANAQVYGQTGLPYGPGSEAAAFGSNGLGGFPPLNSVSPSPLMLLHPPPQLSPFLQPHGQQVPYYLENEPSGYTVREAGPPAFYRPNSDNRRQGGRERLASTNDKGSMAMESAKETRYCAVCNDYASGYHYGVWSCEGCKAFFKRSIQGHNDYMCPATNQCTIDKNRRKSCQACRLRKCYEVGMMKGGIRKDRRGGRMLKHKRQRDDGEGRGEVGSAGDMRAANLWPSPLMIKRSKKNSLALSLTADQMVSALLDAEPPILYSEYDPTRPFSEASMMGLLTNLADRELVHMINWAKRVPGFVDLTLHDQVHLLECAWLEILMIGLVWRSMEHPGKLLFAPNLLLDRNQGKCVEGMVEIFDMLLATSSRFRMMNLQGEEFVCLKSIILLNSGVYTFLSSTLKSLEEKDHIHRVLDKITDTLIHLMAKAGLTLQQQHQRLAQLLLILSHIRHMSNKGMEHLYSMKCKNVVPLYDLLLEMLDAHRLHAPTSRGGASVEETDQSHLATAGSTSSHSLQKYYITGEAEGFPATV

DC50 (ERα)	Dmax at 0.1 µM (ERα)	GI50 (MCF-7 cells)	SMILES	ER degradation (ER)
1.13 nM	69%	–	CC1Cc2c([nH]c3cc4c(cc23)CC4)C(c2c(F)cc(NC3CN(CCCF)C3)cc2F)N1CC(F)(F)F (single isomer, unassigned) [Compound 22-1, N-(3,5-difluoro-4-(3-methyl-2-(2,2,2-trifluoroethyl)-2,3,4,6,7,9-hexahydro-1H-cyclobuta[f]pyrido[3,4-b]indol-1-yl)phenyl)-1-(3-fluoropropyl)azetidin-3-amine]	–
0.594 nM	70%	–	Cc1ccc2c3c([nH]c2c1)[C@@H](c1c(F)cc(N[C@H]2CCN(CCCF)C2)cc1F)N(CC(F)(F)CO)[C@H](C)C3 [Compound 8, 3-((1R,3R)-1-(2,6-difluoro-4-(((S)-1-(3-fluoropropyl)pyrrolidin-3-yl)amino)phenyl)-3,7-dimethyl-1,3,4,9-tetrahydro-2H-pyrido[3,4-b]indol-2-yl)-2,2-difluoropropan-1-ol]	–
0.447 nM	72%	–	C[C@@H]1Cc2c([nH]c3cccc(F)c23)[C@@H](c2c(F)cc(N[C@H]3CCN(CCCF)C3)cc2F)N1CC(F)(F)CO [Compound 15, 3-((1R,3R)-1-(2,6-difluoro-4-(((S)-1-(3-fluoropropyl)pyrrolidin-3-yl)amino)phenyl)-5-fluoro-3-methyl-1,3,4,9-tetrahydro-2H-pyrido[3,4-b]indol-2-yl)-2,2-difluoropropan-1-ol]	–
0.244 nM	77%	–	C[C@@H]1Cc2c([nH]c3cc(F)ccc23)[C@@H](c2c(F)cc(N[C@H]3CCN(CCCF)C3)cc2F)N1CC(F)(F)CO [Compound 31, 3-((1R,3R)-1-(2,6-difluoro-4-(((S)-1-(3-fluoropropyl)pyrrolidin-3-yl)amino)phenyl)-7-fluoro-3-methyl-1,3,4,9-tetrahydro-2H-pyrido[3,4-b]indol-2-yl)-2,2-difluoropropan-1-ol]	–
0.269 nM	68%	< 0.026 nM	C[C@@H]1Cc2c([nH]c3cc(F)c(F)cc23)[C@@H](c2c(F)cc(N[C@H]3CCN(CCCF)C3)cc2F)N1CC(F)(F)CO [Compound 35, 3-((1R,3R)-1-(2,6-difluoro-4-(((S)-1-(3-fluoropropyl)pyrrolidin-3-yl)amino)phenyl)-6,7-difluoro-3-methyl-1,3,4,9-tetrahydro-2H-pyrido[3,4-b]indol-2-yl)-2,2-difluoropropan-1-ol]	–
1.7 nM	72%	< 0.026 nM	C[C@@H]1Cc2c([nH]c3ccc(F)cc23)[C@@H](c2c(F)cc(N[C@H]3CCN(CCCF)C3)cc2F)N1CC(F)(F)CF [Compound 38, (S)—N-(3,5-difluoro-4-((1R,3R)-6-fluoro-3-methyl-2-(2,2,3-trifluoropropyl)-2,3,4,9-tetrahydro-1H-pyrido[3,4-b]indol-1-yl)phenyl)-1-(3-fluoropropyl)pyrrolidin-3-amine]	–
0.726 nM	70%	< 0.026 nM	Cc1ccc2[nH]c3c(c2c1)C[C@@H](C)N(CC(F)(F)CO)[C@@H]3c1c(F)cc(N[C@H]2CCN(CCCF)C2)cc1F [Compound 49, 3-((1R,3R)-1-(2,6-difluoro-4-(((S)-1-(3-fluoropropyl)pyrrolidin-3-yl)amino)phenyl)-3,6-dimethyl-1,3,4,9-tetrahydro-2H-pyrido[3,4-b]indol-2-yl)-2,2-difluoropropan-1-ol]	–
0.712 nM	68%	–	C#Cc1ccc2c3c([nH]c2c1)[C@@H](c1c(F)cc(NC2CN(CCCF)C2)cc1F)N(CC(F)(F)F)[C@H](C)C3 [Compound 51, N-(4-((1R,3R)-7-ethynyl-3-methyl-2-(2,2,2-trifluoroethyl)-2,3,4,9-tetrahydro-1H-pyrido[3,4-b]indol-1-yl)-3,5-difluorophenyl)-1-(3-fluoropropyl)azetidin-3-amine]	–
–	–	–	C[C@]12CC[C@@H]3c4ccc(O)cc4C[C@@H](CCCCCCCCC[S+]([O-])CCCC(F)(F)C(F)(F)F)[C@H]3[C@@H]1CC[C@@H]2O (some centres unmarked) [Fulvestrant]	approximately 50%
